Experimental data: patent US10906977B2, “Enhancing the therapeutic activity of immune checkpoint inhibitor” (Maine Medical Center Research Institute, priority 2016, dated 2021)

Legend:
[1] = system: chick chorioallantoic membrane (CAM); assay: Chick CAM angiogenesis induced by soluble RGD collagen peptides; type: in vivo
Description: (§1) The chick chorioallantoic membrane (CAM) assays were carried out with some modifications (19). For all experiments CAMs of 10-day-old chick embryos obtained from Charles River (North Franklin, Conn.) were separated from the shell membrane. Filter discs either non-treated (inflammation assays) pretreated (angiogenesis assays) with cortisone acetate (3.0 mg/ml) containing RPMI only or FGF-2 (40 ng). CAMs were either non-treated or treated topically with Mab XL313, XL166 or a non-specific control antibody (10 μg/embryo every 24 h for three consecutive treatments). […] At the end of the incubation period the embryos were sacrificed and the CAM tissues were analyzed. Angiogenesis was quantified by counting the number of angiogenic branching blood vessels within the area of the filter disc. The angiogenic index was determined by subtracting the mean number of blood vessel branch points from untreated CAMs from each experimental condition. Eight to twelve embryos were used per condition and experiments were repeated at least three times.

[2] = system: endothelial cells transduced with YAP specific or non-specific shRNAs; assay: Growth of shRNA transduced endothelial cells with soluble RGD peptides; type: cell-based, human
Description: HUVECs (WT, shYAP1 or control transfected) or HRMVECs were plated at 2,000 cells per well with complete EGM-2 media containing 2.0% FBS in the absence or presence of P-1, P-2 or P-C (100 ng/ml) and allowed to grow for 24 hours. Cell growth was monitored using a BrdU or MMT assay kits according to manufacturer's instructions. All assays were completed at least three times in triplicate wells.
Raw cells were transfected with 1 μg of HuSH shRNA plasmids for collagen type I, alpha 2 using Amaxa cell line nucleofector kit V (program #T024). Constructs expressing 21-nucleotide short hairpin RNAs (shRNA) targeting human YAP (shYAP) or non-targeting control (shNT, Sigma-Aldrich, SHC002) were used. Humantargeting shYAP1 lentiviral shRNA was obtained from the Thermo Scientific RNAi consortium (TRCN0000107625). Constructs were packaged into lentivirus, pseudotyped with the vesicular stomatitis virus glycoprotein. Transduction was performed by incubating cells with lentivirus, and stably transduced cells were subsequently used for studies. All cell lines were verified by morphology and mouse and human YAP-specific PCR. […] Endothelial cells were certified mycoplasma-negative by PCR (Lonza), and primary cell cultures were used within the indicated passage numbers. Cells were transduced and selected using puromycin.

Src = Src phosphorylation in endothelial cells attached to collagen peptides (Western blot); type: cell-based, human; settings: FIG. 7D
Description: (§2) Whole cell and CAM tissue lysates were collected in RIPA buffer supplemented with 1× protease inhibitor and 1× phosphatase inhibitor and were run on polyacrylamide gels using denaturing conditions. Prior to loading the gels, 6× sample buffer was added to each of the lysates (final concentration 1×) and boiled for five minutes. Twenty to 50 μg of total protein were loaded into each lane. […] Gels were run at 60 volts (v) until the dye front passed through the stacking gel, and then the voltage was increased to 100V for the remainder of the separation. Precision Plus protein standards (Bio-Rad) were used to visualize migration. Protein was transferred to nitrocellulose membranes using a wet tank system and blocked for 1 h using 10% non-fat dried milk in tris-buffered saline with 0.01% Tween-20 (TBS-T). […] Membranes were washed 3 times in TBS-T for five minutes. Blots were then incubated with HRP conjugated secondary antibodies (1:15000) in 1% non-fat milk in TBS-T for 1 h. Membranes were washed a second time as indicated above and exposed to chemiluminecent substrate for three minutes prior to exposure to autoradiography film in a dark room. Western blot bands were quantified using Image J software based on pixel intensity.

β3-integrin = molecular target: T1, β3-integrin (Homo sapiens, UniProt P05106+P06756); assay: β3-integrin phosphorylation in endothelial cells attached to collagen peptides (Western blot); type: cell-based; settings: absence of growth factors; FIG. 7C
T1 construct: endogenous in cells; host or cells: HUVEC
T1 sequence (P05106 27-788): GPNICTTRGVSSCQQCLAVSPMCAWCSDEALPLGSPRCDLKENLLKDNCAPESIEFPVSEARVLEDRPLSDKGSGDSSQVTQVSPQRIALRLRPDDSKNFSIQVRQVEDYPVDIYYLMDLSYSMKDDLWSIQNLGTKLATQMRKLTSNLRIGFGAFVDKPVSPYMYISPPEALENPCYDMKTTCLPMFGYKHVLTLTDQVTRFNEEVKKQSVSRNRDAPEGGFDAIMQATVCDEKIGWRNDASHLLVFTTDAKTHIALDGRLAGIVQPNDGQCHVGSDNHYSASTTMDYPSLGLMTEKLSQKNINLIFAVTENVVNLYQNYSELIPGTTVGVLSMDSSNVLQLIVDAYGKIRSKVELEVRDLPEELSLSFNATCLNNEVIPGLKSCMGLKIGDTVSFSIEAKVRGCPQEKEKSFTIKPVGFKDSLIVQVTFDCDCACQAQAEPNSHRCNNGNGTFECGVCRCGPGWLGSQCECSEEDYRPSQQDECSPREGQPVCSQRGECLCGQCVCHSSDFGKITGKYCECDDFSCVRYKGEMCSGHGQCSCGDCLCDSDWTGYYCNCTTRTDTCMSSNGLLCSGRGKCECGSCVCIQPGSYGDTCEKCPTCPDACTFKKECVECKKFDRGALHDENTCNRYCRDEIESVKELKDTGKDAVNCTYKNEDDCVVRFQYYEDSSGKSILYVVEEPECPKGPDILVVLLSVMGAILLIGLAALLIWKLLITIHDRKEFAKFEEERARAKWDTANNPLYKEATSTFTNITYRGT
T1 sequence (P06756 31-889 limits assumed): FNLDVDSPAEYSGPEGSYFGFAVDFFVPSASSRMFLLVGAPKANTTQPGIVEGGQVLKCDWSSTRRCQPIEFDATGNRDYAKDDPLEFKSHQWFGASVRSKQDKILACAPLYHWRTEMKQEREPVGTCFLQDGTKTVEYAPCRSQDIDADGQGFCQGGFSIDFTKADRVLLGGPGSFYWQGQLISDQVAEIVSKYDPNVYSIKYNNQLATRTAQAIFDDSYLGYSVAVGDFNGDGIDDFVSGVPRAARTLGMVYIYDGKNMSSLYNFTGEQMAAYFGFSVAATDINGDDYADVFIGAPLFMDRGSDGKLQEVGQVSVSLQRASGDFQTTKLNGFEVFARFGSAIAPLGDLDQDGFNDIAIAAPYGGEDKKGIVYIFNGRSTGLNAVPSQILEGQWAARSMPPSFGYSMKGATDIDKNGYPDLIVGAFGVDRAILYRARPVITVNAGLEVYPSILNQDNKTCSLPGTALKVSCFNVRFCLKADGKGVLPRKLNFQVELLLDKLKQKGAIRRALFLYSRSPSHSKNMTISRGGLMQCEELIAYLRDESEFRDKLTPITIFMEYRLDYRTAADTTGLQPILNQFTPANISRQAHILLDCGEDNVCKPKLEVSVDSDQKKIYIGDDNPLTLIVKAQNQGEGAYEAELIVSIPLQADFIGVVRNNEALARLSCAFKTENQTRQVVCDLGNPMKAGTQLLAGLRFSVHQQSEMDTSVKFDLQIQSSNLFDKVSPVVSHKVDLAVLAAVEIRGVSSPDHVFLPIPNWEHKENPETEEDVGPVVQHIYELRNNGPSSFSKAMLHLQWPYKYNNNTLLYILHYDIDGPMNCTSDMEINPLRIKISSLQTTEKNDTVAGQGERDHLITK
T1 sequence (P06756 891-1048 partner limits assumed): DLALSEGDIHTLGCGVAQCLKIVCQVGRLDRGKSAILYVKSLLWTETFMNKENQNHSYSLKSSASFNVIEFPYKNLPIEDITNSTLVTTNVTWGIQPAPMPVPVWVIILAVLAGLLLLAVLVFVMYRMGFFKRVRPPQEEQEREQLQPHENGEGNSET
Description: (§3) Endothelial cells (HUVECs or HRMVECs) were incubated in serum free media with 1 mM MgCl2, 0.2 mM MnCl2 in the presence of a Src inhibitor, PP2, (10 μM) a P38MAPK inhibitor, SB202190 (10 μM) or vehicle only (DMSO) for 10 min at 37° C. Treated cells were then seeded on to immobilized P-1 and P-2 and lysates were collected at 15 min.
as §2, with “Membranes were washed a second time as indicated above and exposed to chemiluminecent substrate for three minutes prior to exposure to autoradiography film in a dark room.” left out

P38MAPK [3] = assay: Phosphorylated P38MAPK in CAM tissue lysates (Western blot); type: in vivo, chick; settings: peptide treated CAMs; FIG. 6B
Description: as §1, with “For all experiments CAMs of 10-day-old chick embryos obtained from Charles River (North Franklin, Conn.) were separated from the shell membrane.” left out
Whole cell and CAM tissue lysates were collected in RIPA buffer supplemented with 1× protease inhibitor and 1× phosphatase inhibitor and were run on polyacrylamide gels using denaturing conditions. Prior to loading the gels, 6× sample buffer was added to each of the lysates (final concentration 1×) and boiled for five minutes. Twenty to 50 μg of total protein were loaded into each lane. […] Western blot bands were quantified using Image J software based on pixel intensity.

P38MAPK [4] = assay: Phosphorylated P38MAPK in HUVECs attached to collagen peptides (Western blot); type: cell-based, human; settings: cells attached to peptide; FIG. 6D
Description: as §3
as §2, with “Membranes were washed a second time as indicated above and exposed to chemiluminecent substrate for three minutes prior to exposure to autoradiography film in a dark room.” left out

PD-L1 = PD-L1 in control and β3 integrin knock down T-cells stimulated with peptide (western blot); type: cell-based, human; settings: FIG. 33
Description: In order to confirm the functional role of integrin αvβ3 receptor in regulating the levels of the immune suppressive molecule PD-L1 by the XL313 cryptic collagen peptide P2, the expression of PD-L1 was examined in β3 integrin knock down and control transfected T-cells. Whole cell lysates from control transfected (Cont T-cells) and β3 integrin shRNA transfected T-cells (β3/KD) that were stimulated with control peptide (PC) or the XL313 cryptic collagen peptide (P2) were analyzed by western blot for expression of PD-L1.

P38MAPK [5] = assay: Phosphorylated P38MAPK in HRMVEC attached to collagen peptides (Western blot); type: cell-based, human; settings: cells attached to peptide; FIG. 6E
Description: as §3
as §2, with “Membranes were washed a second time as indicated above and exposed to chemiluminecent substrate for three minutes prior to exposure to autoradiography film in a dark room.” left out

LAG3 = assay: Checkpoint molecule expression in human T-cell lines stimulated with collagen peptides (Western blot); type: cell-based; settings: Jurkat and CCL120.1; FIG. 35
Description: In order to confirm the functional ability of the XL313 cryptic collagen peptide P2 to regulate expression of the immune suppressive checkpoint molecule LAG3, αvβ3 expressing human T-cell lines Jurkat and CCL120.1 were stimulated with the cryptic collagen peptide P2 or control collagen peptides P1 or PC. Whole cell lysates from were analyzed for expression of PD-L1 and beta actin (β-Actin).

In the case of CQGPRGDKGEC [Mab P-2], the “dose dependent induction of CAM angiogenesis” value ([1]; FIG. 5B) is reported as “dose dependently enhanced angiogenesis”, the “dose of maximum induction of angiogenesis” value ([1]; FIG. 5B) is reported as 100 ng/CAM and the “induction of CAM angiogenesis as compared to no treatment” value ([1]; soluble peptide, FIG. 5C) is reported as “induced angiogenesis”. The “growth of endothelial cells in which YAP was knocked down” value ([2]; YAP specific shRNA, FIG. 8H) was “failed to induce growth”, the “growth of control transduced endothelial cells with soluble peptide” value ([2]; non-specific shRNA, FIG. 8G) was “enhanced growth” and the “enhancement of Src phosphorylation as compared to P-1” value (Src) was about 2 fold. For the same sequence, the “increase of β3 phosphorylation as compared to P-1” value (β3-integrin) was “over 3 fold”, the “increase in phosphorylation of P38MAPK in CAM tissues as compared to controls” value (P38MAPK [3]) was 4 fold and the “phosphorylation of P38MAPK in HUVECs, as compared to P-1” value (P38MAPK [4]) was “enhanced phosphorylation of P38MAPK”. The “expression of PD-L1 in control transfected T-cells” value (PD-L1) was “enhanced expression of PD-L1”, the “expression of PD-L1 in β3 integrin knock down cells” value (PD-L1) was “little ability to enhance the expression of PD-L1” and the “phosphorylation of P38MAPK in HRMVEC, as compared to P-1” value (P38MAPK [5]) was “enhanced phosphorylation of P38MAPK”. For the same sequence, the “expression of LAG3 in human T-cells” value (LAG3) was “induces expression of the immunosuppressive molecule LAG3” and the “levels of PD-L1 in stimulated T-cells as compared to controls” value (LAG3) was “clear increase in the levels of PD-L1”.
